Assay results as given in US6861442B1, “PYK2 and inflammation” (Sugen, Inc., priority 1998, dated 2005).

Legend:
P388D1 cells = assay: TNF-α secretion by P388D1 macrophage clones measured by ELISA; assay type: cell-based, murine; conditions: for Secretion of TNF-α caused by the stimulus: 1 μg/mL, overnight (18 hours), P388D1 doxycycline inducible clones; for Secretion of TNF-α: P388D1 cells stimulated with LPS or PMA
Source text: FIGS. 8a, 8b, 8c, and 8d compare the secretion of TNF-α by wild-type and kinase mutant P388D1 cells in response to activators of macrophage function or PYK2 activity. FIGS. 8a and 8b show the effect of LPS in the presence and absence of DOX on TNF-α secretion from kinase mutant (dominant negative; FIG. 8a) and wild-type (FIG. 8b) cells. FIGS. 8c and 8d show the effect of PMA in the presence and absence of DOX on TNF-α secretion from kinase mutant (FIG. 8c) and wild-type (FIG. 8d) cells. Induction of P388D1 cells in the presence of doxicycline was carried out for 48 hours followed by stimulation with LPS (1 μg/mL) or PMA (1 μg/mL) for 18 hrs. Secreted TNF-α was measured by ELISA.
TNF secretion in response to stimulation with either LPS (1 μg/mL) or PMA (1 μg/mL) by the doxycycline inducible clones is shown in FIG. 8. Induction in the presence of doxycycline was carried out for 48 hours followed by stimulation with LPS or PMA overnight (18 hours). […] Secreted TNF-α was measured by ELISA. […] Secretion of TNF-α was inhibited by herbimycin A and genestein, which are non-specific inhibitors of tyrosine phosphorylation.

Pyk2 = target: T1, Pyk2 (Mus musculus, UniProt Q9QVP9); assay: Tyrosine phosphorylation of Pyk2 in response to LPS stimulation in P388D1 cells (anti-Pyk2 IP, anti-phosphotyrosine 4G10 western blot); assay type: cell-based, murine; conditions: P388D1 cells pre-treated 4 hours, then stimulated with LPS for 30 minutes
T1 construct: abrogates the function of the endogenous wild-type PYK2 protein in these macrophages; endogenous in cells; host or cells: P388D1 murine macrophage cell line
Experimental: FIGS. 6a and 6b show the tyrosine phosphorylation of PYK2 in macrophage cell lines in response to LPS (lipopolysaccharide) and tyrosine kinase inhibitors. Cells were either starved overnight in 0.5% serum and stimulated with LPS for variable time intervals (FIG. 6a), or were pre-treated with either herbimycin A or genestein for 4 hours and then stimulated with LPS for 30 minutes (FIG. 6b). After stimulation, cells were washed, lysed, and immunoprecipitated with anti-PYK2 antibody. Immunoprecipitates (IP) were then analyzed by western blotting.
Cells were lysed in lysis buffer containing 50 mM N-2-hydroxyethylpiperazine-N′-2-ethanesulferic acid (HEPES pH 7.5), 150 mM NaCl, 10% glycerol, 1% Triton X-100, 1.5 mM MgCl2, 1 mM ethyleneglycol-bis (β-aminoethyl ether)-N,N,N′N′-tetraacetic acid (EGTA), 10 μg leupeptin per mL, 10 μg aprotinin per mL, 1 mM phenylmethylsulfonyl fluoride (PMSF), 200 μM sodium orthovanadate and 100 mM sodium fluoride. […] The washed immunoprecipitates were incubated for 5 min with gel sample buffer at 100° C. and analyzed by sodium dodecyl sulfate polyacrylamide gel electrophoresis (SDS-PAGE). […]
Tyrosine phosphorylation of Pyk2 in response to LPS stimulation was measured in P388D1 cells. […] Immuno-precipitates were then analyzed by western blotting. Tyrosine phosphorylated bands were detected with the anti-phosphotyrosine antibody 4G10. […]

wild type macrophages = assay: Cytoplasmic calcium release in single Fura-2 loaded adherent macrophages; assay type: cell-based, mice; conditions: wild type macrophages attached to cover slips
Experimental: Cells grown in 6-well plates were labeled for 24 h in medium-199 containing myo-[^3H]inositol(20 μCi/ml). The cells were washed once with PBS and pre-incubated for 10 min. in 2 ml of PBS containing 10 mM LiCl (PH 7.4) at 37° C. prior to the addition of chemokines. The cells were extracted with methanol/1M HCl/chloroform 1:1:1 and analyzed by high-performance liquid chromatography (HPLC) as described (Falasca, et al. (1998) EMBO J. 17:414-422). [Ca^2+] i measurements were performed in single macrophages as described (Falasca, et al. 1995).
Calcium plays an important role in the control of a variety of intracellular events as well as in the control of cell shape, and cell movement (Lawson and Maxfield, 1995). We therefore measured cytoplasmic calcium release in single cells in response to MIP1α stimulation by using quantitative fluorescence microscopy of Fura-2 loaded cells. […] Defect in calcium release may contribute towards the failure of the cells to detach at the rear end leading to impairment in cell migration since proteins that regulate the degradation of focal contact components and disassembly of F-actin require calcium for their action (Witke, et al. (1995) Cell 81:41-51; Kulkarni, et al. (1999) J. Biol Chem. 274:21265-21275).

T1 sequence (Q9QVP9 whole entry): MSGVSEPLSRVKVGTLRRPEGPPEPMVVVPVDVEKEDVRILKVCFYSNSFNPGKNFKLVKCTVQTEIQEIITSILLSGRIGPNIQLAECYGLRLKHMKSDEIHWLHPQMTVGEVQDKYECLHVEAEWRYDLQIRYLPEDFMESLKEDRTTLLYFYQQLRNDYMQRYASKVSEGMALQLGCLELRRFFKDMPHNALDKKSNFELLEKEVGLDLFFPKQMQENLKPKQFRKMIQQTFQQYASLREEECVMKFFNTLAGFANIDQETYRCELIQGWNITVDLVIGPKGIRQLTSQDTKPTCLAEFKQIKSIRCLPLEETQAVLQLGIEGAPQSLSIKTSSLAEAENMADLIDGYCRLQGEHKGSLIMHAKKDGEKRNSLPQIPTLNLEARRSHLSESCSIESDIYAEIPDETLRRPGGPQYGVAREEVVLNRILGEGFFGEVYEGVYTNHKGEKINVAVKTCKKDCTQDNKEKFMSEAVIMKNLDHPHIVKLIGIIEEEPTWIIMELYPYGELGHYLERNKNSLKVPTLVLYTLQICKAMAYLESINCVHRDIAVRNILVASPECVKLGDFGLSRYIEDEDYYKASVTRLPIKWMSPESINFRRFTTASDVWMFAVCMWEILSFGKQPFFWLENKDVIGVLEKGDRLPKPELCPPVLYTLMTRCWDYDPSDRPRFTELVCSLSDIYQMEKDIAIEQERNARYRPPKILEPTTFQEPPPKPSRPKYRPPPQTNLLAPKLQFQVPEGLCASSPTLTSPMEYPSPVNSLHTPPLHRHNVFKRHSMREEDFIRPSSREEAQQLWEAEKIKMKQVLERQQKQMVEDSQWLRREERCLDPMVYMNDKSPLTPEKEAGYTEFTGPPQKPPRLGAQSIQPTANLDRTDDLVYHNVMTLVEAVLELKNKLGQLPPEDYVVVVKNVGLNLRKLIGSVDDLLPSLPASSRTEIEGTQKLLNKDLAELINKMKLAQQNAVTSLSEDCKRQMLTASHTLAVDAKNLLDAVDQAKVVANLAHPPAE

Row | Compound | Secretion of TNF-α caused by the stimulus (P388D1 cells) | Tyrosine phosphorylation of Pyk2 (Pyk2) | Secretion of TNF-α (P388D1 cells) | Maximum increase in cytoplasmic [Ca+2] concentration (wild type macrophages)
1 | CCCCCCCCCCCCCC(=O)O[C@@H]1[C@@H](C)[C@@]2(O)[C@@H](C=C(CO)C[C@]3(O)C(=O)C(C)=C[C@@H]23)[C@@H]2C(C)(C)[C@]12OC(C)=O [PMA, phorbol 12-myristate 13-acetate] | caused secretion of TNF-α | – | – | –
2 | O=c1c(-c2ccc(O)cc2)coc2cc(O)cc(O)c12 [genestein] | – | diminished | inhibited | –
3 | CO[C@H]1[C@@H](OC)C[C@H](C)[C@@H](OC)C2=CC(=O)C=C(NC(=O)/C(C)=C/C=C\[C@H](OC)[C@@H](OC(N)=O)/C(C)=C/[C@@H]1C)C2=O [herbimycin A] | – | diminished | inhibited | –
4 | MIP1α: chemokine used to stimulate macrophages | – | – | – | approximately 300 nM
5 | lipopolysaccharide [LPS] | caused secretion of TNF-α | – | – | –
